Among the data in PubChem BioAssay AID330 (DTP/NCI, 2004) are T/C values, retold here.

This experiment concerns P388 leukemia ip, CD2F1 mice, survival T/C. Description: NCI In Vivo Anticancer Drug Screen. Data for tumor model P388 Leukemia (intraperitoneal) in CD2F1 (CDF1) mice. Conditions: endpoint: median survival time, higher = longer survival. The method, boiled down:
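Mice carrying the transplanted tumor received test compound or vehicle. Survival was recorded in each group, and the value is the treated-group measurement divided by that of the vehicle-treated control group.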

The mark [1] stands for this setting: dose: 12.5 mg/kg/injection, schedule: Q01DX005 (ip), vehicle: saline with Tween-80.
[2] abbreviates: dose: 25.0 mg/kg/injection, schedule: Q01DX005 (ip), vehicle: saline with Tween-80.
Setting [3] is: dose: 50.0 mg/kg/injection, schedule: Q01DX005 (ip), vehicle: saline with Tween-80.
The mark [4] stands for this setting: dose: 100.0 mg/kg/injection, schedule: Q01DX005 (ip), vehicle: saline with Tween-80.
Where [5] appears, read: dose: 50.0 mg/kg/injection, schedule: Q01DX005 (ip), vehicle: Klucel (hydroxypropylcellulose) (HPC).
The mark [6] stands for this setting: dose: 100.0 mg/kg/injection, schedule: Q01DX005 (ip), vehicle: Klucel (hydroxypropylcellulose) (HPC).
The mark [7] stands for this setting: dose: 200.0 mg/kg/injection, schedule: Q01DX005 (ip), vehicle: Klucel (hydroxypropylcellulose) (HPC).
Setting [8] is: dose: 25.0 mg/kg/injection, schedule: Q01DX001 (ip), vehicle: Klucel (hydroxypropylcellulose) (HPC).
Where [9] appears, read: dose: 50.0 mg/kg/injection, schedule: Q01DX001 (ip), vehicle: Klucel (hydroxypropylcellulose) (HPC).
Where [10] appears, read: dose: 100.0 mg/kg/injection, schedule: Q01DX001 (ip), vehicle: Klucel (hydroxypropylcellulose) (HPC).
[11] abbreviates: dose: 60.0 mg/kg/injection, schedule: Q01DX005 (ip), vehicle: saline with Tween-80.
Where [12] appears, read: dose: 100.0 mg/kg/injection, schedule: Q04DX003 (ip), vehicle: saline.
Where [13] appears, read: dose: 200.0 mg/kg/injection, schedule: Q04DX003 (ip), vehicle: saline.
The mark [14] stands for this setting: dose: 12.5 mg/kg/injection, schedule: Q01DX009 (ip), vehicle: saline with Tween-80.
Where [15] appears, read: dose: 50.0 mg/kg/injection, schedule: Q01DX009 (ip), vehicle: saline with Tween-80.

Where “and” joins values, the source holds several entries; their conditions need not be identical. Identical values can stand only once. Toxic doses and inconclusive results are not listed.

For the compound `Oc1c(O)c(Br)c(Br)c(Br)c1Br`, the T/C was 107 % of control and 95 % of control (dose: 100.0 mg/kg/injection, schedule: Q01DX009 (ip), vehicle: saline); 111 % of control (dose: 200.0 mg/kg/injection, schedule: Q01DX009 (ip), vehicle: saline).
Take `C=C1C(=C)C2OC1c1cc3c(cc12)C(=O)C=CC3=O`: the T/C runs as follows: under setting [1], 100 % of control; under setting [2], 91 % of control.
As for `COCCCNC(=O)c1nc2ccccc2c(=O)n1NC(=O)Cc1ccccc1`, the T/C is 95 % of control under setting [3]; 95 % of control under setting [4]; 95 % of control (dose: 200.0 mg/kg/injection, schedule: Q01DX005 (ip), vehicle: saline with Tween-80).
For the compound `Cc1ccc(C2c3c(c4ccccc4n3C(=O)c3ccccc3)C(=O)NN2C(=O)c2ccccc2)cc1` (stereo not drawn), the T/C is 97 % of control under setting [5], 90 % of control under setting [6] and 95 % of control under setting [7].
On to `CC(O)(C#Cc1ccccc1)c1nc2ccccc2s1` (stereo not drawn), for which the T/C by setting is: (dose: 60.0 mg/kg/injection, schedule: Q01DX005 (ip), vehicle: Klucel (hydroxypropylcellulose) (HPC)) 101 % of control; (dose: 120.0 mg/kg/injection, schedule: Q01DX005 (ip), vehicle: Klucel (hydroxypropylcellulose) (HPC)) 101 % of control; (dose: 240.0 mg/kg/injection, schedule: Q01DX005 (ip), vehicle: Klucel (hydroxypropylcellulose) (HPC)) 100 % of control.
`COc1cc(/C=C2\C(=O)C=C(C)CC2(C)C)ccc1O`: the T/C runs as follows: (dose: 50.0 mg/kg/injection, schedule: Q04DX003 (ip), vehicle: saline with Tween-80) 95 % of control; (dose: 100.0 mg/kg/injection, schedule: Q04DX003 (ip), vehicle: saline with Tween-80) 90 % of control.
With `C(=NCCN=Cc1ccccc1)c1ccccc1`, the T/C was 95 % of control (dose: 200.0 mg/kg/injection, schedule: Q01DX009 (ip), vehicle: saline with Tween-80) and 87 % of control (dose: 400.0 mg/kg/injection, schedule: Q01DX009 (ip), vehicle: saline with Tween-80).
Take `CNC(=O)OCc1c(COC(=O)NC)c(-c2cccc(F)c2F)n2c1CCC2`: the T/C was 171 % of control (dose: 12.5 mg/kg/injection, schedule: Q01DX009 (ip), vehicle: distilled water + Tween-80); 156 % of control and 159 % of control (dose: 25.0 mg/kg/injection, schedule: Q01DX009 (ip), vehicle: distilled water + Tween-80).
On to `COc1ccc2oc(N(C)c3ccccc3)c(C3OC4OC(C)(C)OC4C3OC)c(=O)c2c1` (stereo not drawn), for which the T/C was 97 % of control under setting [8], 105 % of control under setting [9] and 109 % of control under setting [10].
For `CC1=C(C#N)C(=O)OC1(C)C1CCCC(=O)C1` (stereo not drawn), the T/C reads like this: (dose: 7.5 mg/kg/injection, schedule: Q01DX005 (ip), vehicle: saline with Tween-80) 99 % of control; (dose: 15.0 mg/kg/injection, schedule: Q01DX005 (ip), vehicle: saline with Tween-80) 100 % of control; (dose: 30.0 mg/kg/injection, schedule: Q01DX005 (ip), vehicle: saline with Tween-80) 98 % of control; under setting [11], 100 % of control and 107 % of control.
In the case of `COSc1ccc(C)cc1`, the T/C reads like this: under setting [12], 108 % of control; under setting [13], 100 % of control.
`Nc1cc2c3c(cccc3c1)C(=O)N(CCN1CCCC1)C2=O`: the T/C reads like this: (dose: 6.25 mg/kg/injection, schedule: Q01DX009 (ip), vehicle: saline with Tween-80) 102 % of control; (dose: 6.5 mg/kg/injection, schedule: Q01DX009 (ip), vehicle: saline with Tween-80) 122 % of control; (dose: 12.1 mg/kg/injection, schedule: Q01DX009 (ip), vehicle: saline with Tween-80) 163 % of control; under setting [14], 110 % of control; (dose: 24.2 mg/kg/injection, schedule: Q01DX009 (ip), vehicle: saline with Tween-80) 160 % of control and 180 % of control; (dose: 48.39 mg/kg/injection, schedule: Q01DX009 (ip), vehicle: saline with Tween-80) 86 % of control and 96 % of control. In addition, the T/C by setting is: under setting [15], 173 % of control; (dose: 100.0 mg/kg/injection, schedule: Q01DX009 (ip), vehicle: saline with Tween-80) 189 % of control.
`CC(/C=N\Nc1ccc(C(=O)O)cc1)=N/N=C(N)N`: the T/C under setting [12] was 99 % of control; the T/C under setting [13] is 98 % of control; the T/C (dose: 400.0 mg/kg/injection, schedule: Q04DX003 (ip), vehicle: saline) is 100 % of control.
For the compound `COP(=S)(OC)Oc1ccc(S(N)(=O)=O)cc1`, the T/C runs as follows: (dose: 100.0 mg/kg/injection, schedule: Q04DX002 (ip), vehicle: saline with Tween-80) 102 % of control; (dose: 200.0 mg/kg/injection, schedule: Q04DX002 (ip), vehicle: saline with Tween-80) 98 % of control; (dose: 400.0 mg/kg/injection, schedule: Q04DX002 (ip), vehicle: saline with Tween-80) 98 % of control.
`c1ccc(N=C2CCCCC2)cc1`: the T/C is 98 % of control (dose: 100.0 mg/kg/injection, schedule: Q01DX001 (ip), vehicle: other); 97 % of control (dose: 200.0 mg/kg/injection, schedule: Q01DX001 (ip), vehicle: other); 106 % of control (dose: 400.0 mg/kg/injection, schedule: Q01DX001 (ip), vehicle: other); 101 % of control (dose: 600.0 mg/kg/injection, schedule: Q01DX001 (ip), vehicle: other).
Turning to `CCOC(=O)c1c(C(=O)OCC)c2cccn2c2c1cnn2-c1ccccc1`, the T/C is 99 % of control under setting [11]; 93 % of control (dose: 120.0 mg/kg/injection, schedule: Q01DX005 (ip), vehicle: saline with Tween-80); 91 % of control (dose: 240.0 mg/kg/injection, schedule: Q01DX005 (ip), vehicle: saline with Tween-80).
As for `CCC(C)C(=O)Nc1ccccc1-c1ccccc1` (stereo not drawn), the T/C was 99 % of control under setting [14]; 100 % of control (dose: 25.0 mg/kg/injection, schedule: Q01DX009 (ip), vehicle: saline with Tween-80); 103 % of control under setting [15]; 91 % of control (dose: 50.0 mg/kg/injection, schedule: Q01DX009 (ip), vehicle: saline).
In the case of `Cc1c(Cl)cc([N+](=O)[O-])cc1S(=O)(=O)Oc1ccccc1`, the T/C reads like this: under setting [10], 103 % of control; (dose: 200.0 mg/kg/injection, schedule: Q01DX001 (ip), vehicle: Klucel (hydroxypropylcellulose) (HPC)) 108 % of control; (dose: 400.0 mg/kg/injection, schedule: Q01DX001 (ip), vehicle: Klucel (hydroxypropylcellulose) (HPC)) 100 % of control.
With `CSc1ccnc2cc(Cl)ccc12`, the T/C is 96 % of control under setting [5], 106 % of control under setting [6] and 110 % of control under setting [7].
`CC1CC(C)C(C)C(CNCC2CC(C)CC(C)C2C)C1` (stereo not drawn): the T/C under setting [1] is 99 % of control; the T/C under setting [2] is 99 % of control; the T/C under setting [3] was 102 % of control and 97 % of control; the T/C under setting [4] was 102 % of control.
For `OC1(c2ccccc2)C(c2ccccc2)=C(c2ccccc2)C(c2ccc(CCc3ccc(C4=C(c5ccccc5)C(O)(c5ccccc5)C(c5ccccc5)=C4c4ccccc4)cc3)cc2)=C1c1ccccc1` (stereo not drawn), the T/C was 105 % of control (dose: 6.25 mg/kg/injection, schedule: Q01DX001 (ip), vehicle: Klucel (hydroxypropylcellulose) (HPC)); 111 % of control (dose: 12.5 mg/kg/injection, schedule: Q01DX001 (ip), vehicle: Klucel (hydroxypropylcellulose) (HPC)); 90 % of control under setting [8]; 94 % of control under setting [9].
Consider `CC(=O)CC(C)=O.CC(=O)CC(C)=O.CCCn1ccnc1.O=N[O-].[Co]`, for which the T/C was 95 % of control (dose: 50.0 mg/kg/injection, schedule: Q01DX001 (ip), vehicle: saline with Tween-80); 101 % of control and 93 % of control (dose: 100.0 mg/kg/injection, schedule: Q01DX001 (ip), vehicle: saline with Tween-80); 99 % of control and 120 % of control (dose: 200.0 mg/kg/injection, schedule: Q01DX001 (ip), vehicle: saline with Tween-80); 108 % of control (dose: 400.0 mg/kg/injection, schedule: Q01DX001 (ip), vehicle: saline with Tween-80).
Take `CC(=O)OCN(C)N=Nc1ccc(Br)cc1`: the T/C runs as follows: (dose: 36.0 mg/kg/injection, schedule: Q01DX005 (ip), vehicle: Klucel (hydroxypropylcellulose) (HPC)) 94 % of control; (dose: 72.0 mg/kg/injection, schedule: Q01DX005 (ip), vehicle: Klucel (hydroxypropylcellulose) (HPC)) 92 % of control.
